Five cell lines from the supplement of paper PMC10307832 can be followed below.

Common to all, as to assay: relative viability (nuclei count vs DMSO), 5 days (fraction); higher = more cells survive
Compound in test [1]: CC(C)C[C@H](NC(=O)[C@H](CCc1ccccc1)NC(=O)CN1CCOCC1)C(=O)N[C@@H](Cc1ccccc1)C(=O)N[C@@H](CC(C)C)C(=O)[C@@]1(C)CO1 [Carfilzomib] + CCNC(=O)c1noc(-c2cc(C(C)C)c(O)cc2O)c1-c1ccc(CN2CCOCC2)cc1 [Luminespib] (partner 0.01 µM)
The essentials:
(§1)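 Relative viability was taken as the ratio of nuclei in treated wells to nuclei in vehicle wells. Lung cancer cell lines in 1536-well plates received compounds by pin tool one day after seeding, either one drug alone or a fixed anchor-drug dose plus five library-drug doses (not always all listed) in √10 steps. Nuclei were counted on 4× images after 5 days of treatment, and values are medians of duplicate plates.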

Compound in test [2]: CC(C)C[C@H](NC(=O)[C@H](CCc1ccccc1)NC(=O)CN1CCOCC1)C(=O)N[C@@H](Cc1ccccc1)C(=O)N[C@@H](CC(C)C)C(=O)[C@@]1(C)CO1 [Carfilzomib] + NC(=O)Nc1cc(-c2cccc(F)c2)sc1C(=O)N[C@H]1CCCNC1 [AZD7762] (partner 0.2 µM)
An outline of the steps: as §1

Compound in test [3]: C[C@@H](Oc1cc(-c2cnn(C3CCNCC3)c2)cnc1N)c1c(Cl)ccc(F)c1Cl [Crizotinib] + CC1(C)CCC(c2ccc(Cl)cc2)=C(CN2CCN(c3ccc(C(=O)NS(=O)(=O)c4ccc(N[C@H](CCN5CCOCC5)CSc5ccccc5)c(S(=O)(=O)C(F)(F)F)c4)cc3)CC2)C1 [Navitoclax] (partner 0.5 µM)
An outline of the steps:
as §1

Compound in test [4]: C[C@@H](Oc1cc(-c2cnn(C3CCNCC3)c2)cnc1N)c1c(Cl)ccc(F)c1Cl [Crizotinib] + COc1cc2c(Oc3ccc(NC(=O)C4(C(=O)Nc5ccc(F)cc5)CC4)cc3F)ccnc2cc1OCCCN1CCOCC1 [Foretinib] (partner 0.25 µM)
The essentials:
as §1

Turning to HCC-15, the relative viability in test [1] (first compound 0.001 µM) amounted to 0.306; in test [1] (first compound 0.003162 µM) it was 0.344; in test [1] (first compound 0.01 µM), 0.299; in test [1] (first compound 0.03162 µM) it was 0.268; in test [1] (first compound 0.1 µM) it was 0.0676; in test [2] (first compound 0.001 µM), 1.12. The relative viability was found to be 1.29 in test [2] (first compound 0.003162 µM); 1.31 in test [2] (first compound 0.01 µM); 1.12 in test [2] (first compound 0.03162 µM); 0.453 in test [2] (first compound 0.1 µM); 0.644 in test [3] (first compound 0.01 µM); 0.736 in test [3] (first compound 0.03162 µM). Further, the relative viability in test [3] (first compound 0.1 µM) amounted to 0.704; in test [3] (first compound 0.3162 µM), 0.664; in test [3] (first compound 1 µM), 0.76; in test [4] (first compound 0.01 µM), 1.07; in test [4] (first compound 0.03162 µM), 1; in test [4] (first compound 0.1 µM) it was 1.03. Moreover, in test [4] (first compound 1 µM), the relative viability came out at 0.987.

Regarding RERF-LC-KJ, the relative viability turned out to be 1.24 in test [1] (first compound 0.001 µM); 1.29 in test [1] (first compound 0.003162 µM); 1.32 in test [1] (first compound 0.01 µM); 0.609 in test [1] (first compound 0.03162 µM); 0.224 in test [1] (first compound 0.1 µM); 0.827 in test [2] (first compound 0.001 µM). Besides, the relative viability in test [2] (first compound 0.003162 µM) is 1.11; in test [2] (first compound 0.01 µM), 1.24; in test [2] (first compound 0.03162 µM) it was 0.927; in test [2] (first compound 0.1 µM), 0.309; in test [3] (first compound 0.01 µM), 1.18; in test [3] (first compound 0.03162 µM) it was 0.767. The relative viability in test [3] (first compound 0.1 µM) is 1.13; in test [3] (first compound 0.3162 µM) it was 0.682; in test [3] (first compound 1 µM) it was 1.02; in test [4] (first compound 0.01 µM), 0.824; in test [4] (first compound 0.03162 µM) it was 0.896; in test [4] (first compound 0.1 µM), 1.33. Moreover, the relative viability is 0.817 in test [4] (first compound 0.3162 µM) and 0.887 in test [4] (first compound 1 µM).

Take NCI-H647: the relative viability in test [1] (first compound 0.001 µM) turned out to be 0.203; in test [1] (first compound 0.003162 µM), 0.143; in test [1] (first compound 0.01 µM), 0.2; in test [1] (first compound 0.03162 µM) it was 0.0957; in test [1] (first compound 0.1 µM) it was 0.0461; in test [2] (first compound 0.001 µM), 0.385. For the same cell line, the relative viability in test [2] (first compound 0.003162 µM) came out at 0.468; in test [2] (first compound 0.01 µM), 0.29; in test [2] (first compound 0.03162 µM), 0.0154; in test [2] (first compound 0.1 µM) it was 0.0223; in test [3] (first compound 0.01 µM) it was 1.01; in test [3] (first compound 0.03162 µM), 1.21. For the same cell line, the relative viability in test [3] (first compound 0.1 µM) came to 1.03; in test [3] (first compound 1 µM), 1.06; in test [4] (first compound 0.01 µM), 1.2; in test [4] (first compound 0.03162 µM), 1.24; in test [4] (first compound 0.1 µM), 1.19; in test [4] (first compound 0.3162 µM), 1.18. Further, in test [4] (first compound 1 µM), the relative viability stood at 1.22.

In the case of 201T, the relative viability was 0.999 in test [1] (first compound 0.001 µM); 1.15 in test [1] (first compound 0.003162 µM); 1.07 in test [1] (first compound 0.01 µM); 1.02 in test [1] (first compound 0.03162 µM); 0.915 in test [1] (first compound 0.1 µM); 0.67 in test [2] (first compound 0.001 µM). The relative viability in test [2] (first compound 0.003162 µM) worked out at 0.574; in test [2] (first compound 0.01 µM), 0.626; in test [2] (first compound 0.03162 µM) it was 0.591; in test [2] (first compound 0.1 µM), 0.461; in test [3] (first compound 0.01 µM) it was 1.2; in test [3] (first compound 0.03162 µM), 1.18. In addition, the relative viability in test [3] (first compound 0.1 µM) is 1.16; in test [3] (first compound 0.3162 µM) it was 1.19; in test [3] (first compound 1 µM), 1.21; in test [4] (first compound 0.01 µM), 0.982; in test [4] (first compound 0.03162 µM), 1.12; in test [4] (first compound 0.1 µM), 1.09. For the same cell line, the relative viability was 1.13 in test [4] (first compound 0.3162 µM) and 1.14 in test [4] (first compound 1 µM).

With HOP-62, the relative viability in test [1] (first compound 0.001 µM) was found to be 0.986; in test [1] (first compound 0.003162 µM), 0.91; in test [1] (first compound 0.01 µM), 0.849; in test [1] (first compound 0.03162 µM) it was 0.784; in test [1] (first compound 0.1 µM), 0.0941; in test [2] (first compound 0.001 µM), 0.619. Moreover, the relative viability in test [2] (first compound 0.003162 µM) worked out at 0.699; in test [2] (first compound 0.01 µM), 0.404; in test [2] (first compound 0.03162 µM), 0.173; in test [2] (first compound 0.1 µM), 0.0821; in test [3] (first compound 0.01 µM), 0.994; in test [3] (first compound 0.03162 µM), 0.996. Besides, the relative viability in test [3] (first compound 0.1 µM) is 0.943; in test [3] (first compound 1 µM) it was 0.948; in test [4] (first compound 0.01 µM), 1.09; in test [4] (first compound 0.03162 µM), 1.09; in test [4] (first compound 0.1 µM) it was 1.07; in test [4] (first compound 0.3162 µM) it was 1.07. Further, the relative viability in test [4] (first compound 1 µM) amounted to 1.17.
